According to patent publication US9499550B2 (BRISTOL-MYERS SQUIBB COMPANY, priority 2012, dated 2016):
Like-named read-outs stand apart in the source and are kept apart here.

Columns and labels:
[1] = tested on: HCV genotype 1a (H77 strain) replicon in HUH-7 cells; experiment: HCV replicon luciferase reporter assay, genotype 1a; type: cell-based; conditions: Hepatitis C virus, Huh-7, 72 h, 3 days incubation, read-out: LE_1a (EC50, range)
How it was run: (§1)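 Replicon inhibition for both genotypes was measured as Renilla luciferase signal (EnduRen, 7.5 μM final, 2 h) after 3-day, 37° C exposure of replicon-bearing HUH-7 cells in 4% FCS DMEM, 0.5% DMSO. The 1b construct carries S1179I; the 1a H77 construct carries P1496L and S2204I. Twenty-point, 3-fold dilutions were fitted four-parametrically for EC50, and CC50 was taken from multiplexed Cell Titer-Blue.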

[2] = tested on: HCV genotype 1b (Con1) replicon in HUH-7 cells; experiment: HCV replicon luciferase reporter assay, genotype 1b; type: cell-based; conditions: Hepatitis C virus, Huh-7, 72 h, 3 days incubation, read-out: LE_1b (EC50, range)
How it was run: as §1

[3] = HCV genotype 1a replicon luciferase
[4] = HCV genotype 1b replicon luciferase
[5] = HCV genotype 1a replicon luciferase assay, range class
[6] = HCV genotype 1b replicon luciferase assay, range class

SMILES	EC50 [1, 3] [nM]	EC50 [2, 4] [nM]	EC50 [1, 5] [nM]	EC50 [2, 6] [nM]	other results
CC[C@@H]1C[C@H](C)CC/C=C\[C@@H]2C[C@@]2(C(=O)NS(=O)(=O)C2CC2)NC(=O)[C@@H]2C[C@@H](Oc3ncc(OC)c4ccccc34)CN2C(=O)[C@H]1NC(=O)OC(C)(C)C(C)(F)F [Compound 5439, 3,3-difluoro-2-methylbutan-2-yl((2R,6S,7R,9R,13aS,14aR,16aS,Z)-14a-((cyclopropylsulfonyl)carbamoyl)-7-ethyl-2-((4-methoxyisoquinolin-1-yl)oxy)-9-methyl-5,16-dioxo-1,2,3,5,6,7,8,9,10,11,13a,14,14a,15,16,16a-hexadecahydrocyclopropa[e]pyrrolo[1,2-a][1,4]diazacyclopentadecin-6-yl)carbamate]	0.51 to 1	0.1 to 0.5			
COc1ccc2c(O[C@@H]3C[C@H]4C(=O)N[C@]5(C(=O)NS(=O)(=O)C6(CF)CC6)C[C@H]5/C=C\CC[C@@H](C)C[C@@H](C)[C@H](NC(=O)OC(C)(C)C(F)F)C(=O)N4C3)nc3c(c2c1)CCCO3 [Compound 6078, 1,1-difluoro-2-methylpropan-2-yl((2R,6S,7R,9R,13aS,14aR,16aS,Z)-14a-(((1-(fluoromethyl)cyclopropyl)sulfonyl)carbamoyl)-2-((9-methoxy-2,3-dihydro-1H-pyrano[2,3-c]isoquinolin-6-yl)oxy)-7,9-dimethyl-5,16-dioxo-1,2,3,5,6,7,8,9,10,11,13a,14,14a,15,16,16a-hexadecahydrocyclopropa[e]pyrrolo[1,2-a][1,4]diazacyclopentadecin-6-yl)carbamate]	1.01 to 5	1.01 to 5			
C[C@H]1CC/C=C\[C@@H]2C[C@@]2(C(=O)NS(=O)(=O)C2(C)CC2)NC(=O)[C@@H]2C[C@@H](Oc3nccc4c5c(ccc34)N(C)CCO5)CN2C(=O)[C@@H](NC(=O)NC(C)(C)C)[C@H](C)C1 [Compound 5301, (2R,6S,7R,9S,13aS,14aR,16aS,Z)-6-(3-(tert-butyl)ureido)-7,9-dimethyl-2-((4-methyl-3,4-dihydro-2H-[1,4]oxazino[2,3-f]isoquinolin-7-yl)oxy)-N-((1-methylcyclopropyl)sulfonyl)-5,16-dioxo-1,2,3,5,6,7,8,9,10,11,13a,14,14a,15,16,16a-hexadecahydrocyclopropa[e]pyrrolo[1,2-a][1,4]diazacyclopentadecine-14a-carboxamide]	4.82 to 103	< 5.46			
C[C@H]1CC/C=C\[C@@H]2C[C@@]2(C(=O)NS(=O)(=O)C2CC2)NC(=O)[C@@H]2C[C@@H](Oc3nc(OCC(F)F)cc4c(Cl)cccc34)CN2C(=O)[C@@H](NC(=O)OC(C)(C)C(C)(F)F)[C@H](C)C1 [Compound 1111, 3,3-difluoro-2-methylbutan-2-yl((2R,6S,7R,9S,13aS,14aR,16aS,Z)-2-((5-chloro-3-(2,2-difluoroethoxyl)isoquinolin-1-yl)oxy)-14a-((cyclopropylsulfonyl)carbamoyl)-7,9-dimethyl-5,16-dioxo-1,2,3,5,6,7,8,9,10,11,13a,14,14a,15,16,16a-hexadecahydrocyclopropa[e]pyrrolo[1,2-a][1,4]diazacyclopentadecin-6-yl)carbamate]			< 5.46	< 5.46	
CC(C)Oc1cnc(O[C@@H]2C[C@H]3C(=O)N[C@]4(C(=O)NS(=O)(=O)C5CC5)C[C@H]4/C=C\CC[C@@H](C)C[C@@H](C)[C@H](NC(=O)OC(C)(C)C(F)(F)F)C(=O)N3C2)c2ccccc12 [Compound 20, 1,1,1-trifluoro-2-methylpropan-2-yl((2R,6S,7R,9R,13aS,14aR,16aS,Z)-14a-((cyclopropylsulfonyl)carbamoyl)-2-((4-isopropoxyisoquinolin-1-yl)oxy)-7,9-dimethyl-5,16-dioxo-1,2,3,5,6,7,8,9,10,11,13a,14,14a,15,16,16a-hexadecahydrocyclopropa[e]pyrrolo[1,2-a][1,4]diazacyclopentadecin-6-yl)carbamate]			< 5.46	< 5.46	
CCOc1cc2ccccc2c(O[C@@H]2C[C@H]3C(=O)N[C@]4(C(=O)NS(=O)(=O)C5(C)CC5)C[C@H]4/C=C\CC[C@H](C)C[C@@H](C)[C@H](NC(=O)OC(C)(C)C(F)(F)F)C(=O)N3C2)n1 [Compound 6099, 1,1,1-trifluoro-2-methylpropan-2-yl((2R,6S,7R,9S,13aS,14aR,16aS,Z)-2-((3-ethoxyisoquinolin-1-yl)oxy)-7,9-dimethyl-14a-(((1-methylcyclopropyl)sulfonyl)carbamoyl)-5,16-dioxo-1,2,3,5,6,7,8,9,10,11,13a,14,14a,15,16,16a-hexadecahydrocyclopropa[e]pyrrolo[1,2-a][1,4]diazacyclopentadecin-6-yl)carbamate]	1.01 to 5	1.01 to 5			
CC(C)n1nc(O[C@@H]2C[C@H]3C(=O)N[C@]4(C(=O)NS(=O)(=O)C5(C)CC5)C[C@H]4/C=C\CC[C@@H](C)C[C@@H](C)[C@H](NC(=O)OC(C)(C)C(C)(F)F)C(=O)N3C2)c2ccccc2c1=O [Compound 1016, 3,3-difluoro-2-methylbutan-2-yl((2R,6S,7R,9R,13aS,14aR,16aS,Z)-2-((3-isopropyl-4-oxo-3,4-dihydrophthalazin-1-yl)oxy)-7,9-dimethyl-14a-(((1-methylcyclopropyl)sulfonyl)carbamoyl)-5,16-dioxo-1,2,3,5,6,7,8,9,10,11,13a,14,14a,15,16,16a-hexadecahydrocyclopropa[e]pyrrolo[1,2-a][1,4]diazacyclopentadecin-6-yl)carbamate]			4.82 to 103	4.82 to 103	
COc1cnc(O[C@@H]2C[C@H]3C(=O)N[C@]4(C(=O)NS(=O)(=O)C5(CF)CC5)C[C@H]4/C=C\CC[C@@H](C)C[C@@H](C)[C@H](NC(=O)OC(C)(C)C)C(=O)N3C2)c2ccc(N(C)C)cc12 [Compound 3142, tert-butyl ((2R,6S,7R,9R,13aS,14aR,16aS,Z)-2-((6-(dimethylamino)-4-methoxyisoquinolin-1-yl)oxy)-14a-(((1-(fluoromethyl)cyclopropyl)sulfonyl)carbamoyl)-7,9-dimethyl-5,16-dioxo-1,2,3,5,6,7,8,9,10,11,13a,14,14a,15,16,16a-hexadecahydrocyclopropa[e]pyrrolo[1,2-a][1,4]diazacyclopentadecin-6-yl)carbamate]			< 5.46	< 5.46	
COc1nnc(O[C@@H]2C[C@H]3C(=O)N[C@]4(C(=O)NS(=O)(=O)C5CC5)C[C@H]4/C=C\CC[C@H](C)C[C@@H](C)[C@H](NC(=O)OC(C)(C)C(F)(F)F)C(=O)N3C2)c2ccccc12 [Compound 5005, 1,1,1-trifluoro-2-methylpropan-2-yl((2R,6S,7R,9S,13aS,14aR,16aS,Z)-14a-((cyclopropylsulfonyl)carbamoyl)-2-((4-methoxyphthalazin-1-yl)oxy)-7,9-dimethyl-5,16-dioxo-1,2,3,5,6,7,8,9,10,11,13a,14,14a,15,16,16a-hexadecahydrocyclopropa[e]pyrrolo[1,2-a][1,4]diazacyclopentadecin-6-yl)carbamate]	< 5.46	< 5.46			
COc1cnc(O[C@@H]2C[C@H]3C(=O)N[C@]4(C(=O)NS(=O)(=O)C5(Cl)CC5)C[C@H]4/C=C\CC[C@@H](C)C[C@@H](C)[C@H](NC(=O)OC(C)(C)C(F)(F)F)C(=O)N3C2)c2ccccc12 [Compound 4153]					EC50 ([1]; GETYPE1A, HCV genotype 1a replicon luciferase): < 5.46 nM; EC50 ([2]; GETYPE1B, HCV genotype 1b replicon luciferase): < 5.46 nM
CCCOc1cc2c(Cl)cccc2c(O[C@@H]2C[C@H]3C(=O)N[C@]4(C(=O)NS(=O)(=O)C5(C)CC5)C[C@H]4/C=C\CC[C@H](C)C[C@@H](C)[C@H](NC(=O)OC(C)(C)C(F)(F)F)C(=O)N3C2)n1 [Compound 1077, 1,1,1-trifluoro-2-methylpropan-2-yl((2R,6S,7R,9S,13aS,14aR,16aS,Z)-2-((5-chloro-3-propoxyisoquinolin-1-yl)oxy)-7,9-dimethyl-14a-(((1-methylcyclopropyl)sulfonyl)carbamoyl)-5,16-dioxo-1,2,3,5,6,7,8,9,10,11,13a,14,14a,15,16,16a-hexadecahydrocyclopropa[e]pyrrolo[1,2-a][1,4]diazacyclopentadecin-6-yl)carbamate]			4.82 to 103	< 5.46	
COc1cnc(O[C@@H]2C[C@H]3C(=O)N[C@]4(C(=O)NS(=O)(=O)C5(F)CC5)C[C@H]4/C=C\CC[C@@H](C)C[C@@H](C)[C@H](NC(=O)OC(C)(C)C)C(=O)N3C2)c2ccccc12 [Compound 4224]	< 5.46	< 5.46			
COc1ccc2c(O[C@@H]3C[C@H]4C(=O)N[C@]5(C(=O)NS(=O)(=O)C6CC6)C[C@H]5/C=C\CC[C@@H](C)C[C@@H](C)[C@H](NC(=O)OC(C)(C)C(C)(F)F)C(=O)N4C3)nc(N(C)C)cc2c1 [Compound 3132, 3,3-difluoro-2-methylbutan-2-yl((2R,6S,7R,9R,13aS,14aR,16aS,Z)-14a-((cyclopropylsulfonyl)carbamoyl)-2-((3-(dimethylamino)-6-methoxyisoquinolin-1-yl)oxy)-7,9-dimethyl-5,16-dioxo-1,2,3,5,6,7,8,9,10,11,13a,14,14a,15,16,16a-hexadecahydrocyclopropa[e]pyrrolo[1,2-a][1,4]diazacyclopentadecin-6-yl)carbamate]			< 5.46	< 5.46	
